Experimental data from patent US20100291089A1, “LIGAND OF REGULATING IMMUNE RESPONSE, AND USE THEREOF IN TREATING AN IMMUNE RESPONSE-RELATED DISEASE” (POSTECH ACADEMY-INDUSTRY FOUNDATION, priority 2005, published 2010).
Where no end group is shown, it is not given here.

Tests used:
Format in all cases: cell-based
human neutrophils [1] = assay: FACS analysis of surface CD11b expression on neutrophils; conditions: 1 μM WRW4, 10 μM PACAP27
Description: Purified neutrophils were incubated with indicated concentration of PACAP27 (SEQ ID NO:1) for 1 hour. Cells (2×10^5/assay) were washed with FACS buffer (PBS containing 1% BSA and 0.1% sodium azide), incubated with human AB type serum for 10 minutes on ice, and stained with PE-labeled human CD11b antibody (BD PharMingen, San Diego, Calif.). They were then analyzed using a FACSCalibur system (BD Biosciences, San Jose, Calif.), as described in “Harfi, I., S. D'Hondt, F. Corazza, and E. Sariban. 2004. J. Immunol. 173:4154-4163”.

human neutrophils [2] = assay: Western blot for ERK phosphorylation in human neutrophils; conditions: pretreating with 1 μM WRW4
Description: (§1) Neutrophils were stimulated with 1 μM of PACAP27 (SEQ ID NO:1), PACAP38 (SEQ ID NO:2), or VIP (SEQ ID NO:3), and calcium concentrations were measured for 10 min. In order to measure EKR phosphorylation, each peptide hormones was used with 1 μM concentrations for 5 min. For cAMP measurement, each peptide hormones was used with 1 μM concentrations for 10 min.
ERK phosphorylation levels were measured by Western blotting, as described in above Bae, Y. S. et al. Cells (2×10^6/assay) were stimulated with the indicated concentration of agonist for 5 minutes, then washed with serum-free RPMI 1640 medium and lysed in lysis buffer {20 mM HEPES (pH 7.2), 10% glycerol, 150 mM NaCl, 1% Triton X-100, 1 mM PMSF, […], 50 mM NaF, and 1 mM Na3VO4}. Detergent-insoluble materials were pelleted by centrifugation (12,000×g, 15 minutes, 4° C.), and the soluble supernatant fraction was removed and either stored at −80° C. or used immediately. Laemmli sample buffer was added to these fractions and boiled (5 minutes). Proteins were separated by SDS-PAGE and transferred to nitrocellulose membranes (Schleicher and Schuell, BA85). Blocking was performed using TBS buffer (10 mM Tris/HCl, pH 7.5, 150 mM NaCl, and 0.05% Tween-20) containing 5% nonfat dry milk. Membranes were probed with a phospho-ERK specific primary antibody or ERK2 antibody for 3 hours at room temperature. […]

human monocytes = assay: Intracellular calcium signaling in human monocytes; conditions: 1 μM WRW4
Excerpt: 1.3. Preparation of Neutrophils and Monocytes Peripheral blood was collected from healthy donors (male, 20˜30 years old, venous blood collection). Human neutrophils were isolated by dextran sedimentation followed by hypotonic erythrocyte lysis and lymphocyte separation medium gradient, as described in “Bae, Y. S., H. Bae, Y. Kim, T. G. Lee, P. G. Suh, and S. H. Ryu. 2001. Identification of novel chemoattractant peptides for human leukocytes. Blood 97:2854-2862”. Isolated human neutrophils were used promptly. Peripheral blood mononuclear cells (PBMCs) were separated on a Histopaque-1077 gradient (Bae, Y. S., H. Bae, Y. Kim, T. G. Lee, P. G. Suh, and S. H. Ryu. 2001. Identification of novel chemoattractant peptides for human leukocytes. Blood 97:2854-2862). […]
Intracellular calcium concentrations ([Ca^2+]i) were determined using Grynkiewicz's method with fura-2/AM, as described in “Grynkiewicz, G., M. Poenie, and R. Y. Tsien. […] Fluorescence changes at 340 and 380 nm using a common emission wavelength of 500 nm were measured, and fluorescence ratios were converted to [Ca2+]i, as described in above Grynkiewicz, G. et al.

human neutrophils [3] = assay: Intracellular calcium mobilization (fura-2) in human neutrophils
Description: as §1
Intracellular calcium concentrations ([Ca^2+]i) were determined using Grynkiewicz's method with fura-2/AM, as described in “Grynkiewicz, G., M. Poenie, and R. Y. Tsien. 1985. […] J. Biol. Chem. 260:3440-3450”. Briefly, the cells prepared in Example 1.2 were incubated with 3 µM fura-2/AM at 37° C. for 50 minutes in fresh serum free RPMI 1640 medium with continuous stirring. The incubated cells (2×10^6) were aliquoted for each assay in Ca^2+-free Locke's solution (154 mM NaCl, 5.6 mM KCl, 1.2 mM MgCl2, 5 mM HEPES (pH 7.3), 10 mM glucose, and 0.2 mM EGTA). Fluorescence changes at 340 and 380 nm using a common emission wavelength of 500 nm were measured, and fluorescence ratios were converted to [Ca2+]i, as described in above Grynkiewicz, G. et al.

human neutrophils [4] = assay: Neutrophil chemotaxis assay (multiwell chamber, checkerboard analysis); conditions: 1 μM WRW4, 1 μM PACAP27
Description: Chemotaxis assays were performed using multiwell chambers (Neuroprobe Inc., Gaithersburg, Md.) (Bae, Y. S., H. Bae, Y. Kim, T. G. Lee, P. G. Suh, and S. H. Ryu. 2001. Blood 97:2854-2862). Prepared human neutrophils were suspended in RPMI 1640 medium at a 1×10^6 cells/ml, and 25 μl of this suspension was placed into the upper well of a chamber separated from the lower chamber, which was filled with testing solutions, by a […] filter (not coated with polyvinylpyrrolidone). After incubating for 2 hours at 37° C., non-migrated cells were removed by scraping, and cells that had migrated across the filter were dehydrated, fixed, and stained with hematoxylin (Sigma, St. Louis, Mo.). Stained cells in five randomly chosen high power fields (HPF) (400×) were then counted.
Neutrophil migration was analyzed for 2 hours across a polycarbonate membrane. Various concentrations of PACAP27 (SEQ ID NO:1) as shown in the following Table 1 were placed in the upper and lower compartments of the chambers. Data are presented as means±SE for migrated neutrophils cells per field counted in triplicate of two independent experiments.

human neutrophils [5] = assay: Intracellular cyclic AMP measurement in neutrophils; conditions: 1 μM WRW4, 10 μM PACAP27 for 10 minutes
Description: Neutrophils were stimulated with 1 μM of PACAP27 (SEQ ID NO:1), PACAP38 (SEQ ID NO:2), or VIP (SEQ ID NO:3), and calcium concentrations were measured for 10 min. In order to measure EKR phosphorylation, each peptide hormones was used with 1 μM concentrations for 5 min. […]
Briefly, neutrophils were isolated and resuspended at 5×10^6 cells/ml in Hank's balanced salt solution (HBSS) for 5-10 minutes in a shaking incubator. The HBSS was then replaced with […] HBSS containing 500 µM isobutylmethylxanthine (IBMX; a cAMP phosphodiesterase inhibitor) for 5 minutes, and then cells were stimulated for 10 minutes. The reaction was terminated by adding 1 ml of ethanol, and cAMP levels were determined by using cAMP measuring kit (Neurunex, Pohang, Korea) according to the manufacturer's instructions.

## WRWWWW [WRW4]
Human neutrophils [1]
  inhibition of PACAP27-induced CD11b up-regulation: inhibited completely
Human neutrophils [2]
  inhibition of PACAP27-induced ERK-phosphorylation: completely inhibited
Human monocytes
  inhibition of PACAP27-induced calcium signaling in human monocytes: successfully inhibited
Human neutrophils [3]; 1 M WRW4
  effect on PACAP27 priming of fMLP-induced calcium signaling: abolished
Human neutrophils [3]; 1 M WRW4, 10 nM fMLP
  effect on fMLP-induced calcium signaling: not affected
Human neutrophils [3]; human neutrophils
  concentration that completely inhibits PACAP27-induced neutrophil activation: ≥ 100 nM
Human neutrophils [3]; human neutrophils, pretreatment 30 seconds, 1 μM PACAP27
  inhibition of PACAP27-induced [Ca2+]i up-regulation: successfully inhibited
Human neutrophils [4]
  inhibition of PACAP27-induced neutrophil chemotaxis: completely inhibited
Human neutrophils [5]
  inhibition of PACAP27-induced cAMP elevation: failed to inhibit
